Laboratory results from article PMC9725750, “The clinical pharmacology of tafenoquine in the radical cure of Plasmodium vivax malaria: An individual patient data meta-analysis” (eLife, 2022).

Legend:
[1] = test system: Plasmodium vivax; test: Radical cure efficacy: any P. vivax recurrence within 4 months in patients, pooled DETECTIVE part 1/2 and GATHER (logistic regression and Emax models); assay type: in vivo, human; conditions: for mean recurrence proportion: empirical weight distribution
Excerpt: The primary endpoint for the main efficacy analyses was any P. vivax recurrence within 4 months. We chose the binary endpoint of any recurrence rather than the time to first recurrence because tafenoquine has both asexual stage antimalarial activity ([Fukuda et al., 2017]) and hypnozoiticidal activity. […] The choice of a particular cut-off for follow-up is thus a trade-off between sensitivity and specificity. Longer follow-up will increase the sensitivity of the endpoint (include more relapses) but decrease specificity (include more reinfections).
For all predictors we fitted Bayesian mixed effects logistic regression models (random intercepts for study and study site), with adjustment for day 0 parasitaemia (log transformed). Logistic regression allows inference of the odds-ratio for recurrence for the predictive variable of interest, assuming a linear relationship between the predictive variable and log-odds for recurrence.
For the mg/kg dose (the primary predictor of interest), the dose-response relationship was then assessed under a Bayesian Emax model, where the dose-dependent logit probability of recurrence is defined as: Emax(d,x)=α+βx+δd^k/d^k+γ^k,
The Emax model was also fitted with random intercepts for study and study site.
To determine the main predictors of recurrence, we fitted a multivariable penalised Bayesian logistic regression model. This included the following variables as predictors: the tafenoquine mg/kg dose; the plasma tafenoquine AUC[0,∞); the plasma tafenoquine Cmax; the day 7 MetHb concentration (%); the terminal elimination half-life t1/2; and the baseline parasite density. The model included random intercept terms for each study and study site. […] To avoid convergence issues resulting from the co-linearity of the predictors, the prior on all non-hierarchical coefficients was set to a Normal(0,0.5). This prior effectively shrinks the regression coefficients towards zero. It can be interpreted as follows: plausible odds-ratios for recurrence for one standard deviation change for each of the fixed effect predictors lie approximately between 0.38 and 2.7).
In a priori sensitivity analyses, all recurrences up until 6 months were included as both binary and time to event outcomes. The time to first recurrence was defined as a P. vivax episode between day 7 and day 180 with right censoring at the last recorded visit. We also re-ran the same models in patients who received a 300 mg single dose of tafenoquine only (i.e. the current recommended treatment).

[2] = Tolerability and safety: acute vomiting, severe haemolysis, haemoglobin change; assay type: in vivo, human; conditions: for Hb change to day 2/3 / Hb change to day 7±1: mean (sd)
Description: For tolerability, acute vomiting was defined as vomiting within 1 hr of tafenoquine dosing, and for safety, three definitions of severe haemolysis were assessed:
• Relative fall in haemoglobin by more than 25% to <7 g/dL • Absolute fall in haemoglobin greater than 5 g/dL • Any haemoglobin fall to <5 g/dL
Tolerability and safety events were categorised according to tafenoquine treatment and doses (no tafenoquine, <3.75 mg/kg tafenoquine, [3.75,6.25) mg/kg tafenoquine, [6.25,8.75) mg/kg tafenoquine, ≥8.75 mg/kg tafenoquine). The change in haemoglobin concentration from day 0 to the minimum on day 2 or 3, the expected day of nadir ([Commons et al., 2019]), was calculated to assess changes in haemoglobin associated with tafenoquine dose. Mixed effects models were used to explore the association between tafenoquine mg/kg dose, day 7 MetHb concentration, AUC[0,∞) , Cmax, and t1/2 adjusting for age, sex, day 0 parasite density and day 0 haemoglobin, with random effects for study and site.

[3] = all tafenoquine-treated patients

COc1cc(C)c2c(Oc3cccc(C(F)(F)F)c3)c(OC)cc(NC(C)CCCN)c2n1 (stereo not drawn) [tafenoquine]
reduction of recurrence rates ([1]; 300 mg fixed dose vs no 8-aminoquinoline treatment): around 70% | reduction of recurrence rates ([1]; 450 mg fixed dose vs no 8-aminoquinoline treatment): around 85% | mean recurrence proportion ([1]; 450 mg fixed dose, 95% CI 3.2–11.5): 6.2% | mean estimated recurrence proportion at 4 months ([1]; Emax model, 3 mg/kg): 28.5% | mean estimated recurrence proportion at 4 months ([1]; Emax model, 4 mg/kg): 20.8% | mean estimated recurrence proportion at 4 months ([1]; Emax model, 5 mg/kg): 14.2% | proportion of the maximal obtainable hypnozoiticidal effect ([1]; Emax model, 300 mg dose in a 60 kg adult (5 mg/kg)): 70% | reduction in the risk of P. vivax recurrence ([1]; Emax model, dose 7.5 mg/kg (i.e. 450 mg)): 90% | proportion of the effect achieved with 15 mg/kg ([1]; Emax model, dose of approximately 7.5 mg/kg, 15 mg/kg taken as maximum tolerated single dose): 90% | Recurrence at 4 months ([1]; TQ <3.75 mg/kg single dose + chloroquine, n=169): 57 (33.7) total number (%) | Recurrence at 4 months ([1]; TQ [3.75,6.25) mg/kg single dose + chloroquine, n=368): 79 (21.5) total number (%) | Recurrence at 4 months ([1]; TQ [6.25,8.75) mg/kg single dose + chloroquine, n=54): 4 (7.4) total number (%) | Recurrence at 4 months ([1]; TQ ≥8.75 mg/kg single dose + chloroquine, n=43, 8.75 mg/kg): No recurrences | Recurrence at 4 months ([1]; TQ ≥8.75 mg/kg single dose + chloroquine, n=43, listed as TQ, 8.75 mg/kg): 0 (0) total number (%) | number needed to treat to prevent one additional recurrence of malaria ([1]; adult dose increased from 300 mg to 450 mg, Emax model, 95% CI 7–21): 11 patients | effect on recurrence rates at 4 months of increasing dosing recommendation from 300mg to 450mg ([1]; body weight distribution as in pre-registration trials): more than halve | OR for recurrence per mg/kg increase ([1]; data from DETECTIVE part 1 only, 95% CI 0.52–0.72): 0.62 | mean recurrence proportion ([1]; fixed 300 mg dose in an adult, 95% CI 9.6–21.7): 15.3% | mean probability of recurrence at 4 months ([1]; logistic model estimate, following 5 mg/kg tafenoquine, 95% CI 0.10–0.23): 0.15 | odds-ratio (OR) for recurrence within 4 months per additional mg/kg of tafenoquine ([1]; logistic regression, all data n=1073, 95% CI 0.65–0.76): 0.70 | odds ratio for recurrence per absolute percentage point increase in the day 7 MetHb concentration ([1]; logit-Emax model adjusted for mg/kg dose, 95% CI 0.65 to 0.99): 0.81 | OR for recurrence within 4 months per mg/kg tafenoquine ([1]; restricted to patients who received 300 mg dose, n=469, 95% CI 0.51–0.85): 0.66 | odds ratio for recurrence at 4 months for each day increase in t1/2 ([1]; weight-adjusted t1/2, adjusted for mg/kg dose, 95% CI 1.06–1.25): 1.15 | additional mean haemoglobin reduction at day 2 or 3 ([2]; 300 mg dose in a 60 kg adult): around 0.1 g/dL | additional mean reduction in Hb at day 2 or 3, relative ([2]; 300 mg dose in a 60 kg adult): < 1% | patients who vomited within 1 hour of oral administration ([2]; 15/651 patients): 2.3% | haemoglobin increase per one day increase in terminal elimination half-life ([2]; 95% CI 0.01 to 0.04): 0.02 g/dL | OR for vomiting per mg/kg increase ([2]; 95% CI 0.88–1.32): 1.08 | change in haemoglobin concentration per one percent increase in day 7 MetHb ([2]; Hb on day 2 or 3, 95% CI –0.12 to –0.03): –0.08 g/dL | Absolute Hb fall >5 g/dL ([2]; TQ 3.75-<6.25mg/kg, n=378): 1 (0.3%) n (%) | Hb fall >25% to<7 g/dL ([2]; TQ 3.75-<6.25mg/kg, n=378): 0 (0%) n (%) | Hb fall to <5 g/dL ([2]; TQ 3.75-<6.25mg/kg, n=378): 0 (0%) n (%) | Absolute Hb fall >5 g/dL ([2]; TQ 6.25-<8.75mg/kg, n=56): 0 (0%) n (%) | Hb fall >25% to<7 g/dL ([2]; TQ 6.25-<8.75mg/kg, n=56): 0 (0%) n (%) | Hb fall to <5 g/dL ([2]; TQ 6.25-<8.75mg/kg, n=56): 0 (0%) n (%) | Absolute Hb fall >5 g/dL ([2]; TQ <3.75mg/kg, n=171): 0 (0%) n (%) | Hb fall >25% to<7 g/dL ([2]; TQ <3.75mg/kg, n=171): 0 (0%) n (%) | Hb fall to <5 g/dL ([2]; TQ <3.75mg/kg, n=171): 0 (0%) n (%) | Absolute Hb fall >5 g/dL ([2]; TQ > 8.75mg/kg, n=44): 0 (0%) n (%) | Hb fall >25% to<7 g/dL ([2]; TQ > 8.75mg/kg, n=44): 0 (0%) n (%) | Hb fall to <5 g/dL ([2]; TQ > 8.75mg/kg, n=44): 0 (0%) n (%) | patients with a fall in Hb to less than 5 g/dL [2, 3]: no patients | patients with greater than 5 g/dL fall in Hb [2, 3]: One patient | patients with greater than 25% fall in Hb to <7 g/dL [2, 3]: no patients | mean haemoglobin reduction at day 2 or 3 ([2]; dose increased to 450 mg): 0.15 g/dL | Hb change to day 2/3 ([2]; TQ 3.75-<6.25mg/kg, n=378): –0.7 (0.9) | Hb change to day 7±1 ([2]; TQ 3.75-<6.25mg/kg, n=378): –0.4 (1.1) | Hb change to day 2/3 ([2]; TQ 6.25-<8.75mg/kg, n=56): –0.8 (0.8) | Hb change to day 7±1 ([2]; TQ 6.25-<8.75mg/kg, n=56): –0.4 (1.0) | Hb change to day 2/3 ([2]; TQ <3.75mg/kg, n=171): –0.6 (0.9) | Hb change to day 7±1 ([2]; TQ <3.75mg/kg, n=171): –0.3 (0.9) | Hb change to day 2/3 ([2]; TQ > 8.75mg/kg, n=44): –0.6 (1.1) | Hb change to day 7±1 ([2]; TQ > 8.75mg/kg, n=44): –0.3 (1.3) | haemoglobin change at day 2 or 3 per additional mg/kg of tafenoquine ([2]; mixed effects linear regression, 95% CI –0.04 to 0.00, P=0.02): –0.02 g/dL
